Results: PubChem BioAssay AID1645848
Converted amounts (≈) assume the structure as drawn.

Conditions: buffer; pH 7.4; 6.0 h; 150.0 µM

| SMILES | solubility kinetic |
| --- | --- |
| COc1ccc(C2=Nc3ccc(Br)cc3C(c3ccccc3)N2CC(=O)NN)cc1 (centres undefined) | > 69 µg/mL |
| C[C@@H]1C(=O)O[C@H]2[C@H]1CC[C@@]1(C)Cc3sc(NS(=O)(=O)Cc4ccccc4)nc3[C@@H](C)[C@H]21 | > 68 µg/mL |
| O=S(=O)(Nc1nccs1)c1ccc(NCc2ccccc2O)cc1 | > 53 µg/mL |
| NC(=O)C1CCN(c2nc(-c3ccc(F)cc3)cs2)CC1 | > 45 µg/mL |
| CCOc1ccc(CCNC(=O)c2cccc(C(=O)c3ccccc3)c2)cc1OCC | 3.12 µg/mL (≈ 7.47 µM) |
| O=C(Nc1ccc(S(=O)(=O)Nc2ncc(-c3ccccc3)s2)cc1)c1ccc2ccccc2c1 | < 1 µg/mL |
| O=C(Nc1cccc(S(=O)(=O)C(F)(F)F)c1)c1ccccc1NC(=O)c1ccccc1OCC(F)(F)F | < 1 µg/mL |
| Cc1noc(C)c1C(=O)N1CCC2(CC1)CCN(C(c1ccccc1)c1ccccc1)CC2 | 22 µg/mL (≈ 49.5 µM) |
| NC(=O)C1CCN(c2nc(-c3ccccc3Cl)cs2)CC1 | > 47 µg/mL |
| CC(=O)c1ccc(N[S+](=O)([O-])c2cccc(NC(=O)c3[nH]c(C)c(C(C)=O)c3C)c2)cc1 | 21.3 µg/mL (≈ 47 µM) |
| COc1cccc(Nc2ncc(-c3cccc(N(C)C)c3)c3c2OCC3)c1 | < 1 µg/mL |
| O=C(Cc1ccc(Cl)c(Cl)c1)Nc1ccc(S(=O)(=O)Nc2cncnc2)cc1 | > 64 µg/mL |
| CNC(=O)Cn1cc(-c2ccc3c(c2)C(F)CC32NC(=O)N(CC(=O)N(Cc3ccc(F)cc3)[C@@H](C)C(F)(F)F)C2=O)cn1 (some centres undefined) | 22 µg/mL (≈ 35.5 µM) |
| O=C(CNC(=O)c1cnccn1)NC1CCCc2c1[nH]c1ccc(Cl)cc21 (centres undefined) | 1.46 µg/mL (≈ 3.79 µM) |
| N#Cc1nc(-c2cccc3ccccc23)oc1Nc1ccccc1 | < 1 µg/mL |
| Cc1ccc(NC(=O)CSc2ncc(S(=O)(=O)c3ccc(C(C)C)cc3)c(=O)[nH]2)cc1C | > 70 µg/mL |
| NCC(=O)Nc1cccc(-c2nn3c(=O)cc(N4CCNCC4)nc3s2)c1 | 43.2 µg/mL (≈ 112 µM) |
| CC[C@@]1(O)C(=O)OCc2c1cc1n(c2=O)Cc2c-1nc1cc(F)c(C)c3c1c2[C@@H](N)CC3 | 31.9 µg/mL (≈ 73.3 µM) |
| Fc1cc(Nc2nc(-c3ccncc3)nc3ccccc23)ccc1C(F)(F)F | < 1 µg/mL |
| Cc1ccnc(NC(=S)N2CCN(c3ccc(C(F)(F)F)cc3)CC2)c1 | < 1 µg/mL |
| CC(C)c1ccc(OCc2nc3c(n2Cc2ccccc2)C(=O)N(CC2CCOCC2)CCN3)cc1 | < 1 µg/mL |
| COc1ccc(C(=O)Nc2nc(-c3ccccc3)cs2)cc1NS(=O)(=O)c1ccc(C)cc1 | < 1 µg/mL |
| CC(=O)c1c(C)oc2ccc(N(C(=O)Oc3ccccc3)S(=O)(=O)c3ccccc3)cc12 | < 1 µg/mL |

| SMILES | solubility kinetic |
| --- | --- |
| CC(C)(C)C(=O)C(Oc1ccc(Cl)cc1)n1ccnc1 (centres undefined) | 29 µg/mL (≈ 99.1 µM) |
| Cc1noc(C)c1C(=O)N1CCC2(CCCN(C(c3ccccc3)c3ccccc3)C2)CC1 | 1.15 µg/mL (≈ 2.6 µM) |
| Cc1ccc([S+](=O)([O-])n2cc(Cc3ccc(-c4ccccc4)cc3)c3ccccc32)cc1 | < 1 µg/mL |
| CS(=O)(=O)c1ccccc1-c1csc(N2CCC(C(N)=O)CC2)n1 | > 54 µg/mL |
| CC[S+](=O)([O-])Nc1ccccc1C(=O)Nc1nc(-c2ccccc2)cs1 | 40.5 µg/mL (≈ 104 µM) |
| COc1cccc(CNc2ccc(S(=O)(=O)Nc3nccs3)cc2)c1O | > 58 µg/mL |
| COc1cc(C(=O)NC2CCCc3c2[nH]c2ccccc32)cc(OC)c1OC (centres undefined) | 7.26 µg/mL (≈ 19.1 µM) |
| Nc1scc2c(C(=O)O)nn(-c3ccccc3)c(=O)c12 | 23.9 µg/mL (≈ 83.1 µM) |
| N#Cc1ccc(C(=O)Nc2ccc(Cl)c(-c3nc4cc(Cl)ccc4o3)c2)c(F)c1 | < 1 µg/mL |
| CCOC(=O)c1cc(C)sc1NC(=O)c1ccc(Cl)s1 | < 1 µg/mL |
| Cc1ccc(C(=O)[C@H]2CC[C@@H](C(=O)Nc3ccc(S(=O)(=O)Nc4nccs4)cc3)C2)cc1C | 2.28 µg/mL (≈ 4.72 µM) |
| C=Cc1ccc(C(=O)N2CCCC(CCC(=O)N3CCN(c4ccccn4)CC3)C2)cc1 (centres undefined) | > 64 µg/mL |
| CSc1nnc2c3ccccc3n(CCc3ccccc3)c2n1 | < 1 µg/mL |
| COc1ccc(C[C@@H]2C(=O)N[C@H](C)C(=O)N(C)[C@@H]3C(=O)N(C)[C@@H](Cc4ccc(O)c(c4)Oc4ccc(cc4)[C@H]3O)C(=O)N[C@@H](C)C(=O)N[C@H](C)C(=O)N2C)cc1 | 96.4 µg/mL (≈ 125 µM) |
| COc1ccc2[nH]c3c(c2c1)CCNC31CCN(S(=O)(=O)c2c(C)noc2C)CC1 | 7.38 µg/mL (≈ 17.1 µM) |
| Cc1ccc(CC(=O)Nc2nc(-c3ccc4c(c3)CCN4C(=O)c3ccccc3C)c(C)s2)cc1C | < 1 µg/mL |
| COc1ccc(-c2ccc(Nc3nc(-c4ccncc4)nc4ccccc34)cc2F)cc1F | < 1 µg/mL |
| O=C(Nc1ccc(S(=O)(=O)Nc2nc(-c3ccccc3)cs2)cc1)c1ccc2ccccc2c1 | < 1 µg/mL |
| O=C(NCC1CCN(Cc2cccc(Cl)c2)CC1)Nc1ccc(F)c(Cl)c1 | 25.1 µg/mL (≈ 61.3 µM) |
| Nc1ncnc2c1c(-c1ccc(Oc3ccccc3)cc1)cn2C1CCCC1 | < 1 µg/mL |
| Cc1ccc(S(=O)(=O)c2cnc(SC(C)C(=O)Nc3ccccc3)[nH]c2=O)cc1 (centres undefined) | > 63 µg/mL |
| N#Cc1cccc(Nc2ncc(-c3cccc4ccccc34)o2)c1 | < 1 µg/mL |
| COc1ccc(-c2noc(CSc3nnc(Cc4ccccc4)n3-c3ccc(F)cc3)n2)cc1 | < 1 µg/mL |

| SMILES | solubility kinetic |
| --- | --- |
| CN1CCN(c2ccc(Nc3c4ccccc4nc4ccccc34)cc2)CC1 | > 54 µg/mL |
| COC(=O)Nc1nc2ccc(SC(C)C)cc2[nH]1 | < 1 µg/mL |
| Cc1cccc(N2CCN(C(=O)Cn3ncc4c3-c3ccccc3OC4)CC2)c1C | 3.85 µg/mL (≈ 9.57 µM) |
| CC(C)(C)c1ccc(OCc2nn3c(-c4ccncc4)nnc3s2)cc1 | < 1 µg/mL |
| Cc1nc(Nc2n[nH]c3c2CN(C(=O)N[C@H](CN(C)C)c2ccccc2)C3(C)C)c2sccc2n1 | > 72 µg/mL |
| Fc1cc(-c2nc(Nc3ccc(F)c(F)c3)c3ccccc3n2)ccn1 | < 1 µg/mL |
| O=C(Cn1ccn2nc3c(c2c1=O)CCCCC3)Nc1ccc2c(c1)OCO2 | < 1 µg/mL |
| Fc1cccc(F)c1Nc1nc(-c2ccncc2)nc2ccccc12 | < 1 µg/mL |
| CC1CC(C)(C)N(C(=O)CN2C(=O)c3ccccc3C2=O)c2ccccc21 (centres undefined) | 7.25 µg/mL (≈ 20 µM) |
| Clc1ccccc1-c1nccc(-n2ccnc2)n1 | 7.3 µg/mL (≈ 28.4 µM) |
| CCCCNC(=O)CN1CCN(c2ncc(NC(=O)c3ccc(Cl)cc3)cc2C(=O)O)CC1 | > 70 µg/mL |
| Cc1cc(Cl)ccc1COc1ccnn1-c1cc(C(=O)O)ccn1 | > 51 µg/mL |
| O=C1Nc2c(Cl)cccc2/C1=C\c1cc(Cl)c(O)c(Cl)c1 | 7.3 µg/mL (≈ 21.4 µM) |
| COc1ccc2c3c([nH]c2c1)C1CC2C(CC(O)C(OC)C2CO)CN1CC3 (centres undefined) | > 57 µg/mL |
| CN(C)CCNC(=O)c1nc(-c2ccccc2)cc2[nH]ccc12 | 28.3 µg/mL (≈ 91.9 µM) |
| Fc1ccc(Nc2nc(-c3ccccc3)cc(-c3ccncc3)n2)cc1F | < 1 µg/mL |
| CN(C)c1cccc(-c2cc(N3CCC(C(N)=O)CC3)ncn2)c1 | > 48 µg/mL |
| COC(C)(C)CCn1nc(Nc2c(C)cccc2C)c2cnc(Nc3ccc(OCCN4CCCC4)c(F)c3)nc21 | 28.3 µg/mL (≈ 50.3 µM) |
| CC(C)Oc1ccccc1C(=O)Nc1nc(-c2ccccc2)cs1 | < 1 µg/mL |
| CC(=O)Nc1ccc(C(=O)Nc2ccc3c(c2)N(C2CCCC2)C(=O)c2ccccc2S3)cc1 | < 1 µg/mL |
| CN(C)c1ccc(CN2CCNc3cc(Nc4ccccc4)ncc3C2)cc1 | > 83 µg/mL |
| Cc1ccnc(NC(=S)N2CCN(c3ccc(Cl)cc3Cl)CC2)c1 | 2.28 µg/mL (≈ 5.97 µM) |
| Cc1sc(NC(=O)Cc2ccc3c(c2)OCO3)nc1-c1ccc2c(c1)CCN2C(=O)c1ccccc1C(F)(F)F | < 1 µg/mL |
